Assay results from the Kinase Knowledgebase extract (Sharma et al. 2016).

molecular target: PIK3CA (human) (UniProt P42336); assay: Inhibition of PIK3CA Kinase Activity
Sequence (P42336 whole entry, looked up): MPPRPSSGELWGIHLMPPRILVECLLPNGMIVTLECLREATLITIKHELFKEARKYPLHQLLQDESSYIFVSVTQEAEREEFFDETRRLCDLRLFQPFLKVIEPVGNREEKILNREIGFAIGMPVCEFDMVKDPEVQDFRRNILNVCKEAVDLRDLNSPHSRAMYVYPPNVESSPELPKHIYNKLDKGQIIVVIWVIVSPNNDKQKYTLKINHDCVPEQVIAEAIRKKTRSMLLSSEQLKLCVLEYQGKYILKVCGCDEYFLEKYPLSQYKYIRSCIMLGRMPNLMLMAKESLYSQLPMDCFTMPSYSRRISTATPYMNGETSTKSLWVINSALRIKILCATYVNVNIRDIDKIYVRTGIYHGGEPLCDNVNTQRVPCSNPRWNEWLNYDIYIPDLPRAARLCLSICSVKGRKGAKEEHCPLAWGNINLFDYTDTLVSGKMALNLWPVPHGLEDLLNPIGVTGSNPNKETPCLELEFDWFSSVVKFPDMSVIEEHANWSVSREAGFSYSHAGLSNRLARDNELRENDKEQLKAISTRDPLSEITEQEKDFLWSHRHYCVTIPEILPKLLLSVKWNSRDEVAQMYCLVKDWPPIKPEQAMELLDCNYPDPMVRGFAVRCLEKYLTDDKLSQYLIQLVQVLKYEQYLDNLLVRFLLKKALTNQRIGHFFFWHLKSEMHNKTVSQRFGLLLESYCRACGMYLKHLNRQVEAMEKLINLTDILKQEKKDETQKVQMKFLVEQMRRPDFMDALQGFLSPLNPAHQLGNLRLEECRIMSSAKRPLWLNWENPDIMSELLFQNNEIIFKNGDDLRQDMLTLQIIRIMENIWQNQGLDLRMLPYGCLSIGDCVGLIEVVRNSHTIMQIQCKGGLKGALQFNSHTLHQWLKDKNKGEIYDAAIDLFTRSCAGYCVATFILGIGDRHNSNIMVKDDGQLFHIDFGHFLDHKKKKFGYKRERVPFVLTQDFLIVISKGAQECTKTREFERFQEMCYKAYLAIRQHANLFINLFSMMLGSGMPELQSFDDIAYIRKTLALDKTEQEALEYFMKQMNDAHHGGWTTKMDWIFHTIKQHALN

Structure (SMILES)	IC50
COc1ccc(-c2ccc3c(c2)nc(Nc2ccn[nH]2)n3-c2nc(C)nc(N)n2)cc1CO.COc1ccc(-c2ccc3nc(Nc4ccn[nH]4)n(-c4nc(C)nc(N)n4)c3c2)cc1CO	94.3 nM
CNc1nc(C)nc(-n2c(Nc3cc[nH]n3)nc3ccc(-c4cncnc4)cc32)n1	58.1 nM
CCNC(=S)Nc1ccc(Nc2nc3ccccc3n2-c2nc(C)nc(N)n2)cc1	470 nM
Cc1nc(N)nc(-n2c(Nc3cccc4[nH]ncc34)nc3ccccc32)n1	14.6 nM
Cc1nc(N)nc(-n2c(Nc3ccc(NC(=O)c4ccc(OC(F)(F)F)cc4)cc3)nc3ccccc32)n1	2550 nM
CNc1nc(C)nc(-n2c(Nc3cc[nH]n3)nc3cc(C4=CCNCC4)ccc32)n1.CNc1nc(C)nc(-n2c(Nc3cc[nH]n3)nc3ccc(C4=CCNCC4)cc32)n1	4240 nM
Cc1nc(NC2CC2)nc(-n2c(Nc3ccn[nH]3)nc3ccccc32)n1	4850 nM
Cc1nc(N)nc(-n2c(Nc3ccc(NC(=O)C4CCCC4)cc3)nc3ccccc32)n1	1370 nM
Cc1nc(N)nc(-n2c(Nc3n[nH]c4cccc(F)c34)nc3ccccc32)n1	2740 nM
Cc1nc(NCCO)nc(-n2c(Nc3cc[nH]n3)nc3ccccc32)n1	7260 nM
Cc1nc(N)nc(-n2c(NC3CCOC3)nc3ccccc32)n1 (stereo unspecified)	3830 nM
CNc1nc(C)nc(-n2c(Nc3ccc(NC(C)=O)cc3)nc3ccccc32)n1	53.1 nM
Cc1nc(NCCN2CCNCC2)nc(-n2c(Nc3cc[nH]n3)nc3ccccc32)n1	31800 nM
Cc1nc(NC2CCOCC2)nc(-n2c(Nc3cc[nH]n3)nc3ccccc32)n1	17200 nM
COCCNc1nc(C)nc(-n2c(Nc3cc[nH]n3)nc3ccccc32)n1	4550 nM
Cc1nc(N)nc(-n2c(Nc3ccc(NS(=O)(=O)c4ccc(F)cc4)cc3)nc3ccccc32)n1	1340 nM
